According to US11584775B2, “C4-modified oleanolic acid derivatives for inhibition of IL-17 and other uses” (REATA PHARMACEUTICALS, INC., priority 2015, dated 2023):

Experiments:
hIL17 = test: IL-17 release from differentiated primary human T-cells (IL-17A HTRF assay); type: cell-based; details: inhibition of IL-17A levels; primary human CD4+ T cells differentiated into Th17 cells, 46-hour incubation
Protocol: D. IL-17 Release from Differentiated Primary Human T-Cells and Cell Viability
Primary human cryopreserved CD4+ T Cells (Lonza, donor #0000402103) were plated in Lymphocyte Growth Medium-3 (LGM-3, Lonza) according to the manufacturer's recommendations, and allowed to recover for approximately 3 hours at 37° C. with 5% CO2 in a humidified atmosphere. After the recovery step, cells were collected by centrifugation and re-plated in 96-well plates at a density of ˜140,000 cells per well in LGM-3 medium that contained DMSO (vehicle) or test compound (2-500 nM or 4-1000 nM concentration range). Triplicate wells were plated for each test condition. DMSO (final concentration ≤0.1%) was used as the vehicle. Immediately after plating, CD4+ T cells were activated by adding Dynabeads Human T-Activator CD3/CD28 (Life Technologies; bead-to-cell ratio of 1:2.5) and differentiated into Th17 cells by adding a mixture of the following cytokines: transforming growth factor-β (TGF-β, 5 ng/mL), IL-6 (20 ng/mL), IL-23 (20 ng/mL), and […] (10 ng/mL). Undifferentiated control cells received only cytokine IL-2 (50 ng/mL). All human recombinant cytokines were purchased from R&D Systems. Following a 46-hour incubation at 37° C. with 5% CO2 in a humidified atmosphere, the plates were centrifuged for 3 minutes at 250×g, and half of the supernatant was transferred to a new plate to be used in the IL-17A assay (see below). Cell viability was assessed in the original plate using the CyQuant Direct Assay (Life Technologies). CyQuant values from test compound samples were normalized to those from DMSO-treated samples. The concentration of IL-17A in the supernatant was measured using the Homogeneous Time-Resolved Fluorescence (HTRF) assay (Cisbio Bioassays) according to the manufacturer's protocol. The assay was performed at room temperature in low volume, solid white 384-well plates (Greiner Bio-One). Samples and standards (serially-diluted human recombinant IL-17A (0 to 5,000 pg/mL concentration range; Cisbio Bioassays) were incubated with the anti-human IL-17A antibody conjugate for 16 hours and fluorescence was measured using a Pherastar FS microplate reader (BMG Labtech) in the HTRF mode (excitation at 337 nm and emission at 665 nm and 620 nm). IL-17A concentrations were assessed in duplicate aliquots of supernatant from each well resulting in a total of six readings per test condition. The 665 nm/620 nm signal ratio was calculated and the concentration of IL-17A in each sample was determined by interpolation from the standard curve. IL-17A values from test compound samples were normalized to those from DMSO-treated samples. Data were analyzed using GraphPad Prism version 6.00 for Windows (GraphPad Software, La Jolla Calif. USA). A non-linear regression analysis with log (inhibitor) vs. normalized response using a variable slope was applied to fit the data and determine the IC50 values for inhibition of IL-17A levels and cell viability.

[1] = test system: IFNγ-induced Nitric Oxide production; test: Nitric oxide production assay in RAW 264.7 mouse macrophages; type: cell-based; details: RAW264.7, suppression of IFNγ-induced NO production normalized to cell viability (WST-1), RAW 264.7, 24 hours IFNγ
Protocol: A. Nitric Oxide Production Assay and Cell Viability
RAW 264.7 mouse macrophages were plated in 96-well plates at a density of 30,000 cells per well in triplicate in RPMI 1640+0.5% FBS and incubated at 37° C. with 5% CO2 in a humidified atmosphere. The next day, cells were pre-treated with DMSO (vehicle) or test compound (concentration ranges of 0.4-200 nM or 2-1000 nM) for 2 hours and then treated with recombinant mouse IFNγ (R&D Systems) for 24 hours. Nitric oxide concentration in media was determined using the Griess reagent system (Promega). Cell viability was determined using WST-1 reagent (Roche). Values from test compound samples were normalized to those from DMSO/IFNγ-treated samples. IC50 values were determined based on the suppression of IFNγ-induced Nitric Oxide production normalized to cell viability.

NRF2 = test: AREc32 luciferase reporter assay; type: cell-based, human; details: EC2×: concentration required to increase GST ARE Luciferase reporter activity by 2-fold; AREc32 cells, 19 hours
Source text: B. AREc32 Luciferase Reporter Assay
The AREc32 luciferase reporter assay allows for quantitative assessment of the endogenous activity of the Nrf2 transcription factor in cultured mammalian cells. AREc32 cells are derived from MCF-7 human breast carcinoma cells that were stably transfected with a reporter construct that contains the firefly luciferase gene located downstream of eight copies of the rat GSTA2 antioxidant response element (ARE) sequence (Wang et al., 2006; CXR Biosciences). Active NRF2 binds to the ARE sequences and increases expression of the firefly luciferase gene. To assess the NRF2-activating potential of the test compounds, AREc32 cells were plated in black 96-well plates at a density of 20,000 cells per well in triplicate in DMEM+10% FBS+0.8 mg/mL Geneticin and incubated at 37° C. with 5% CO2 in a humidified atmosphere. The next day, cells were treated with DMSO (vehicle) or test compound (concentration ranges of 0.4-200 nM or 2-1000 nM) for 19 hours. Luciferase activity was determined using the ONE-Glo Luciferase assay (Promega). The luminescence signal was measured on a BMG Pherastar microplate reader. The mean luminescence value from test compound-treated wells was normalized to that from DMSO-treated wells and was represented as fold-induction. Data were analyzed using GraphPad Prism version 6.00 for Windows, GraphPad Software, La Jolla Calif. USA. A non-linear regression curve with log (agonist) vs. response using a variable slope was used to fit the data. Where applicable, a maximum threshold value of 50-fold over DMSO was set. EC2× values were interpolated from the curve. EC2× corresponds to the concentration of test compound required to increase GST ARE Luciferase reporter activity by 2-fold.

human RORγ = target: T1, human RORγ (Homo sapiens, UniProt P51449); test: RORγ assay (GAL4-RORγ hybrid luciferase reporter, inverse-agonist activity); type: cell-based; details: GAL4-RORγ hybrid reporter cells, 23 hours
T1 sequence (P51449 269-508 limits assumed): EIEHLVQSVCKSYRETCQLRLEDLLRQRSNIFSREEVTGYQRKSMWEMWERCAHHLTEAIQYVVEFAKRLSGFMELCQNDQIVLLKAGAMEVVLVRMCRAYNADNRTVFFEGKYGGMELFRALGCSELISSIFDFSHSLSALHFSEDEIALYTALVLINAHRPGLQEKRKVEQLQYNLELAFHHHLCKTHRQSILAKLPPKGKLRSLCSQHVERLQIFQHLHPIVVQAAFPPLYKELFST
Source text: C. RORγ Assay and Cell Viability
The RORγ assay system was purchased from Indigo Biosciences. This nuclear receptor assay utilizes a human cell line that has been engineered to express a hybrid form of the Human RAR-related Orphan Receptor Gamma (RORγ) at high levels. The N-terminal DNA binding domain (DBD) of the native RORγ receptor was substituted with the yeast GAL4-DBD to generate the GAL4-RORγ hybrid nuclear receptor. The reporter cell line is transfected with a plasmid that encodes the beetle luciferase gene under the control of the GAL4 upstream activating sequence (UAS). GAL4 binds to the UAS and increases transcription of downstream target genes. […] To assess the RORγ inverse-agonist activity of the test compounds, reporter cells were plated in white 96-well plates in triplicate and were treated with DMSO (vehicle) or test compound (concentration ranges of 0.4-200 nM or 2-1000 nM) at 37° C. with 5% CO2 in a humidified atmosphere for 23 hours. After this incubation, luciferin was added to the wells and luciferase activity was determined by measuring the luminescence signal using a BMG Pherastar microplate reader. Viability was determined using the Live Cell Multiplex Assay (Indigo Biosciences). Values from test compound samples were normalized to those from DMSO-treated samples. Data were analyzed using GraphPad Prism version 6.00 for Windows (GraphPad Software, La Jolla Calif. USA). A non-linear regression analysis with log (inhibitor) vs. normalized response using a variable slope was applied to fit the data and determine the IC50 values for inhibition of RORγ and cell viability.

Row | SMILES | IC50 (hIL17) [nM] | IC50 (human RORγ) [nM] | IC50 [1] [nM] | EC2x: concentration giving 2-fold induction of ARE luciferase reporter (NRF2) [nM]
1 | CC1(C)CC[C@]2(NC(=O)C(C)(F)F)CC[C@]3(C)[C@H](C(=O)C=C4[C@@]5(C)C=C(C#N)C(=O)[C@@](C)(CO)[C@@H]5CC[C@]43C)[C@@H]2C1 [Compound T28, N-((4aS,6aR,6bS,8aR,9R,12aS,14aR,14bS)-11-cyano-9-(hydroxymethyl)-2,2,6a,6b,9,12a-hexamethyl-10,14-dioxo-1,3,4,5,6,6a,6b,7,8,8a,9,10,12a,14,14a,14b-hexadecahydropicen-4a(2H)-yl)-2,2-difluoropropanamide] | 67 | 463 | 21.1 | 117
2 | COC(=O)[C@]12CCC(C)(C)C[C@H]1[C@H]1C(=O)C=C3[C@@]4(C)C=C(C#N)C(=O)[C@@](C)(N)[C@@H]4CC[C@@]3(C)[C@]1(C)CC2 [Compound T11, methyl (4aS,6aR,6bS,8aR,9S,12aS,14aR,14bS)-9-amino-11-cyano-2,2,6a,6b,9,12a-hexamethyl-10,14-dioxo-1,3,4,5,6,6a,6b,7,8,8a,9,10,12a,14,14a,14b-hexadecahydropicene-4a(2H)-carboxylate] | 75 | 146 | 601 | 477
3 | CNC(=O)[C@]1(C)C(=O)C(C#N)=C[C@]2(C)C3=CC(=O)[C@@H]4[C@@H]5CC(C)(C)CC[C@]5(C(=O)OC)CC[C@@]4(C)[C@]3(C)CC[C@@H]12 [Compound T13, methyl (4aS,6aR,6bS,8aR,9S,12aS,14aR,14bS)-11-cyano-2,2,6a,6b,9,12a-hexamethyl-9-(methylcarbamoyl)-10,14-dioxo-1,3,4,5,6,6a,6b,7,8,8a,9,10,12a,14,14a,14b-hexadecahydropicene-4a(2H)-carboxylate] | 49 | 161 | 295 | 567

The next compounds have a lower IC50 (hIL17) than those just listed; values first:

Row | IC50 (hIL17) [nM] | IC50 (human RORγ) [nM] | SMILES | IC50 [1] [nM] | EC2x: concentration giving 2-fold induction of ARE luciferase reporter (NRF2) [nM]
4 | 20 | 177 | CC1(C)CC[C@@]23CC[C@@]4(C)[C@]5(C)CC[C@@H]6[C@](C)(C=C(C#N)C(=O)[C@@]6(C)CO)C5=CC(=O)[C@]4(OC2=O)[C@@H]3C1 [Compound T31, (4R,4aR,6aR,6bS,8aS,12aR,12bS,14bS)-4-(hydroxymethyl)-4,6a,6b, 11,11,14b-hexamethyl-3,13,16-trioxo-4,4a,5,6,6a,6b,7,8,10,11,12,12a,13,14b-tetradecahydro-3H,9H-12b,8a-(epoxymethano)picene-2-carbonitrile] | 10.5 | 21
5 | 28 | 118 | CC(=O)OC[C@]1(C)C(=O)C(C#N)=C[C@]2(C)C3=CC(=O)[C@]45OC(=O)[C@@]6(CCC(C)(C)C[C@H]64)CC[C@@]5(C)[C@]3(C)CC[C@H]21 [Compound T32, ((4R,4aR,6aR,6bS,8aS,12aR,12bS,14bS)-2-cyano-4,6a,6b, 11,11,14b-hexamethyl-3,13,16-trioxo-4,4a,5,6,6a,6b,7,8,10,11,12,12a,13,14b-tetradecahydro-3H,9H-12b,8a-(epoxymethano)picen-4-yl)methyl acetate] | 115 | 243
6 | 27 | 251 | COCOC[C@]1(C)C(=O)C(C#N)=C[C@]2(C)C3=CC(=O)[C@@H]4[C@@H]5CC(C)(C)CC[C@]5(C(=O)OC)CC[C@@]4(C)[C@]3(C)CC[C@H]21 [Compound T7, methyl (4aS,6aR,6bS,8aR,9R,12aS,14aR,14bS)-11-cyano-9-((methoxymethoxy)methyl)-2,2,6a,6b,9,12a-hexamethyl-10,14-dioxo-1,3,4,5,6,6a,6b,7,8,8a,9,10,12a,14,14a,14b-hexadecahydropicene-4a(2H)-carboxylate] | 95.1 | 270
7 | 21 | 223 | COC[C@]1(C)C(=O)C(C#N)=C[C@]2(C)C3=CC(=O)[C@@H]4[C@@H]5CC(C)(C)CC[C@]5(C(=O)OC)CC[C@@]4(C)[C@]3(C)CC[C@H]21 [Compound T20] | 15.6 | 175
